Results published in PubChem BioAssay (NCI).
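Results reflect a 48-hour exposure of cells in 96-well plates to compound at five concentrations. At the GI50, growth is halved. TGI: concentration producing complete growth inhibition.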

Columns and labels:
Experiment in all cases: NCI tumour cell line growth inhibition, 48 h
786-0 renal = test system: 786-0 renal
A498 renal = test system: A498 renal
ACHN renal = test system: ACHN renal
CAKI-1 renal = test system: CAKI-1 renal
HOP-92 NSCLC = test system: HOP-92 NSCLC
MDA-MB-435 = test system: MDA-MB-435
OVCAR-8 ovarian = test system: OVCAR-8 ovarian
SR leukemia = test system: SR leukemia

Structure (SMILES)	TGI (786-0 renal)	TGI (A498 renal)	TGI (ACHN renal)	TGI (CAKI-1 renal)	TGI (HOP-92 NSCLC)	TGI (MDA-MB-435)	TGI (OVCAR-8 ovarian)	GI50 (786-0 renal)	GI50 (A498 renal)	GI50 (ACHN renal)	GI50 (CAKI-1 renal)	GI50 (MDA-MB-435)	GI50 (OVCAR-8 ovarian)	GI50 (SR leukemia)	TGI (SR leukemia)	GI50 (HOP-92 NSCLC)
CNC1NC(=O)c2ccccc2N1Cc1ccc(F)cc1 (stereo unspecified)	> 100 µM	> 100 µM	> 100 µM	> 100 µM	> 100 µM	> 100 µM	> 100 µM									
CCC(C)/C=C(C)/C=C/C(=O)c1c(O)c(-c2ccc(O)cc2)c[nH]c1=O (stereo unspecified)	16.7 µM	16.4 µM	14.2 µM	12.6 µM		11.2 µM	13.9 µM	4330 nM	2030 nM	3.53 µM	2740 nM	2.94 µM	3.12 µM	2390 nM	6.49 µM	
Cc1ccc2c(=O)[nH]sc2c1	15.4 µM	> 100 µM	21.6 µM	17.8 µM		27.6 µM	33.2 µM								18.7 µM	
O=c1[nH]nc2c3c(cccc13)NC(CN1Cc3ccccc3C1)=N2	> 100 µM	> 100 µM	> 100 µM	> 100 µM		> 100 µM	> 100 µM	6620 nM	4700 nM	4.92 µM	4920 nM	4.39 µM	15 µM	5130 nM	> 100 µM	
O=[N+]([O-])c1cc(Br)cc2c1[nH]c1ccc(Br)cc12	27.4 µM	81.8 µM	19.9 µM	11.9 µM	36.5 µM	> 100 µM	> 100 µM	5470 nM	6860 nM	3.31 µM	2230 nM	20.6 µM	11.4 µM			7850 nM
CCOC(=O)[C@@H](C)C[C@H](Cc1ccccc1)NC(=O)c1csc([C@@H](C[C@H](C(C)C)N(C)C(=O)[C@H](CCC(C)C)NC(=O)[C@H]2CCCCN2C)OC(C)=O)n1	5.53 µM	0.0226 µM			23.3 µM		10.1 µM	13.5 nM	4.19 nM				0.0125 µM	< 3.33 nM	3.77 µM	658 nM
CN(C)CCNC(=O)c1cc([N+](=O)[O-])ccn1	> 100 µM	> 100 µM	> 100 µM	> 100 µM		35.8 µM	76.4 µM								> 100 µM	
Fc1ccc(-c2nnc3sc(-c4cccc(Cl)c4)nn23)cc1Cl	> 100 µM	> 100 µM	> 100 µM	> 100 µM	89.6 µM	> 100 µM	> 100 µM	> 100000 nM	> 100000 nM	> 100 µM	> 100000 nM	> 100 µM	> 100 µM			33700 nM
C=C(CN1CCN(c2ccccc2F)CC1)c1ccc(C(=O)Nc2ccccc2N)cc1	> 100 µM	22.9 µM	> 100 µM	7.18 µM	5.55 µM		> 100 µM	1880 nM	2510 nM	2.77 µM	1810 nM		1.92 µM			611 nM
C#CC[C@H](c1nc2cc(Cl)ccc2c(=O)n1Nc1ccccc1)N(CCCN)C(=O)c1cccc(Cl)c1F	2.63 µM	3.43 µM	3.89 µM	8.19 µM	1.65 µM	0.0915 µM	1.98 µM	1150 nM	626 nM	1.73 µM	2600 nM	0.0281 µM	0.511 µM			179 nM
CN(/N=N/c1nc(OCc2ccccc2)c2[nH]cnc2n1)C(=O)N(C)/N=N/c1nc(OCc2ccccc2)c2[nH]cnc2n1	> 100 µM	54 µM	> 100 µM	63.5 µM	> 100 µM	> 100 µM	> 100 µM	59700 nM	19700 nM	31.3 µM	17000 nM	49.1 µM	51 µM			29900 nM
Cl.Fc1c[c-]c(-c2ccccn2)c(F)c1.[Pt].c1ccc([PH+](CC[PH+](c2ccccc2)c2ccccc2)c2ccccc2)cc1	1.06 µM	0.478 µM	0.993 µM	0.948 µM	0.422 µM	0.51 µM		231 nM	103 nM	0.271 µM	246 nM	0.127 µM				121 nM
COC[C@H]1OC(=O)c2coc3c2[C@@]1(C)C1=C(C3=O)[C@@H]2CCC(=O)[C@@]2(C)C[C@H]1OC(C)=O	> 100 µM	17.3 µM	> 100 µM			> 54.3 µM	> 100 µM		580 nM						31.3 µM	
CCc1nc2ccc(Cc3ccc(C(=O)NO)cc3)cc2c(=O)n1CCc1ccccc1	3.41 µM	1.93 µM			2.98 µM		4.16 µM	1710 nM	364 nM				0.584 µM	784 nM	61 µM	1360 nM
